This note sets out measurements from patent publication EP0065295A1, “Tryptamine derivatives of thienyloxypropanol amines, process for their preparation, pharmaceutical compositions containing them and preparation of the latter” (HOECHST AKTIENGESELLSCHAFT, priority 1981, dated 1982).

In one series the test system is narkotisierten Hund. As to the kind of experiment: Blood pressure lowering in the anaesthetised dog. To be noted: narkotisierter Hund; compared with Bucindolol. The class given is in vivo. The text has this:
(§1) Die antihypertensive Wirksamkeit der erfindungsgemäßen Verbindungen kann in verschiedenen pharmakolgischen Tests nachgewiesen werden.

A short description of series [1]: Acute toxicity, LD50 rat i.v. To be noted: in vivo, iv, read-out: Akute Toxizität LD50 Ratte i.v.
Source text: as §1

A short description of series [2]: Acute toxicity, LD50 mouse i.v. To be noted: in vivo, iv, read-out: Akute Toxizität LD50 Maus i.v.
Source text: as §1

Another series relates to wachen Hund. As to the kind of experiment: Blood pressure lowering in the conscious dog. To be noted: wacher Hund; compared with Bucindolol. The class given is in vivo.
Source text: as §1

Broadly, the LD50 is the dose at which mortality reaches 50%. As to `CC(C)(Cc1c[nH]c2ccccc12)NCC(O)COc1ccsc1C(N)=O` (racemic) [Beispiel 2, 3-<3-[1,1-Dimethyl-2-(indol-3-yl)äthylamino]-2-hydroxy-- propoxy>-thiophen-2-carbonsäureamid], the blutdrucksenkend result in the series with narkotisierten Hund and with wachen Hund was “ähnlich stark und anhaltend blutdrucksenkend wie das bekannte Bucindolol” throughout. Further, the median lethal dose (LD50) came to 86 mg/kg in series [1] and 74 mg/kg in series [2].

On to `CC(C)(Cc1c[nH]c2ccccc12)NCC(O)COc1ccccc1C#N` (stereo not drawn) [Bucindolol, 2-<2-Hydroxy-3-<[2-(3-indolyl)-1,1-dimethyläthyl] amino>-propoxy>benzonitril, reference compound], for which the median lethal dose (LD50) in series [1] (Ratte, i.v.) came to 20.2 mg/kg; in series [2] (Maus, i.v.) it was 9.6 mg/kg.
